Assay [1] deals with PC-3M-Luc-C6 prostate cells. The experiment in a line: In vitro PC-3M-Luc-C6 prostate cell proliferation assay in lipid reduced medium. As to conditions: 96 h, read-out: pIC50 PC-3M-Luc-C6 prostate cell (converted). The class given is cell-based.
In assay [2] the test system is A2780 ovarian cells. The experiment in a line: A2780 ovarian cell proliferation assay in lipid reduced medium, with palmitate (MTT). As to conditions: Homo sapiens, A2780, 96 h; read-out: pIC50 A2780 Ovarian Cell, With Palmitate (converted). Type of assay: cell-based. Put shortly: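 In this palmitate-supplemented format, compound dilutions (30 μM down to 0.01 μM) are added to cells in lipid-reduced serum with 25 μM palmitate, 0.2% fatty-acid-free BSA and 0.25% ethanol. After four days (96 h) MTT absorbance at 544 nm is recorded and fitted by minimum sum of squares.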

Assay [3] addresses T1, hFASN enzyme (full length) (Homo sapiens, UniProt P49327).
T1 construct: 10 μL hFASN enzyme (full length, 300 ng, purified in house); made in house
Nature of the assay: Fatty Acid Synthase (FASN) inhibition scintillation proximity assay. Type of assay: biochemical. The procedure, abridged:
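Scintillation proximity format: in-house full-length enzyme, 300 ng per well, pH 7.5 phosphate/DTT buffer, ³H-acetyl-CoA and malonyl-CoA. Emission counted on LEADseeker at 610 nm at least 24 h after stopping.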

Assay [4] has as its system LNCaP-Vancouver prostate cells. The experiment in a line: In vitro LNCaP Vancouver prostate cell proliferation assay in lipid reduced medium. The class given is cell-based. As to conditions: read-out: pIC50 LNCaP_Vancouver prostate cell (converted).
Assay [5] deals with Fatty Acid Synthase Keto-reductase Domain (FASN KR) (Homo sapiens, UniProt P49327). Nature of the assay: Fatty Acid Synthase keto-reductase domain (FASN KR) inhibition, NADPH oxidation at 340 nm.
Protocol: After 20 minutes incubation at room temperature the plate was measured again (T2).
The decrease in absorbance was calculated as (Absorbance before incubation T1)−(Absorbance following incubation T2).
A plot of Controlmin versus test compound concentration was fitted to a 4-parameter logistic curve using a non-linear least squares regression method.
In assay [6] the test system is A2780 ovarian cells. Nature of the assay: A2780 ovarian cell proliferation assay in lipid reduced medium, without palmitate (MTT). The class given is cell-based. To be noted: Homo sapiens, A2780, 96 h; read-out: pIC50 A2780 Ovarian Cell, Without Palmitate (converted).

The text below walks through data of patent US10077261B2, “Imidazolin-5-one derivative useful as FASN inhibitors for the treatment of cancer” (Janssen Pharmaceutica NV, priority 2012, dated 2018).

T1 sequence (P49327 whole entry): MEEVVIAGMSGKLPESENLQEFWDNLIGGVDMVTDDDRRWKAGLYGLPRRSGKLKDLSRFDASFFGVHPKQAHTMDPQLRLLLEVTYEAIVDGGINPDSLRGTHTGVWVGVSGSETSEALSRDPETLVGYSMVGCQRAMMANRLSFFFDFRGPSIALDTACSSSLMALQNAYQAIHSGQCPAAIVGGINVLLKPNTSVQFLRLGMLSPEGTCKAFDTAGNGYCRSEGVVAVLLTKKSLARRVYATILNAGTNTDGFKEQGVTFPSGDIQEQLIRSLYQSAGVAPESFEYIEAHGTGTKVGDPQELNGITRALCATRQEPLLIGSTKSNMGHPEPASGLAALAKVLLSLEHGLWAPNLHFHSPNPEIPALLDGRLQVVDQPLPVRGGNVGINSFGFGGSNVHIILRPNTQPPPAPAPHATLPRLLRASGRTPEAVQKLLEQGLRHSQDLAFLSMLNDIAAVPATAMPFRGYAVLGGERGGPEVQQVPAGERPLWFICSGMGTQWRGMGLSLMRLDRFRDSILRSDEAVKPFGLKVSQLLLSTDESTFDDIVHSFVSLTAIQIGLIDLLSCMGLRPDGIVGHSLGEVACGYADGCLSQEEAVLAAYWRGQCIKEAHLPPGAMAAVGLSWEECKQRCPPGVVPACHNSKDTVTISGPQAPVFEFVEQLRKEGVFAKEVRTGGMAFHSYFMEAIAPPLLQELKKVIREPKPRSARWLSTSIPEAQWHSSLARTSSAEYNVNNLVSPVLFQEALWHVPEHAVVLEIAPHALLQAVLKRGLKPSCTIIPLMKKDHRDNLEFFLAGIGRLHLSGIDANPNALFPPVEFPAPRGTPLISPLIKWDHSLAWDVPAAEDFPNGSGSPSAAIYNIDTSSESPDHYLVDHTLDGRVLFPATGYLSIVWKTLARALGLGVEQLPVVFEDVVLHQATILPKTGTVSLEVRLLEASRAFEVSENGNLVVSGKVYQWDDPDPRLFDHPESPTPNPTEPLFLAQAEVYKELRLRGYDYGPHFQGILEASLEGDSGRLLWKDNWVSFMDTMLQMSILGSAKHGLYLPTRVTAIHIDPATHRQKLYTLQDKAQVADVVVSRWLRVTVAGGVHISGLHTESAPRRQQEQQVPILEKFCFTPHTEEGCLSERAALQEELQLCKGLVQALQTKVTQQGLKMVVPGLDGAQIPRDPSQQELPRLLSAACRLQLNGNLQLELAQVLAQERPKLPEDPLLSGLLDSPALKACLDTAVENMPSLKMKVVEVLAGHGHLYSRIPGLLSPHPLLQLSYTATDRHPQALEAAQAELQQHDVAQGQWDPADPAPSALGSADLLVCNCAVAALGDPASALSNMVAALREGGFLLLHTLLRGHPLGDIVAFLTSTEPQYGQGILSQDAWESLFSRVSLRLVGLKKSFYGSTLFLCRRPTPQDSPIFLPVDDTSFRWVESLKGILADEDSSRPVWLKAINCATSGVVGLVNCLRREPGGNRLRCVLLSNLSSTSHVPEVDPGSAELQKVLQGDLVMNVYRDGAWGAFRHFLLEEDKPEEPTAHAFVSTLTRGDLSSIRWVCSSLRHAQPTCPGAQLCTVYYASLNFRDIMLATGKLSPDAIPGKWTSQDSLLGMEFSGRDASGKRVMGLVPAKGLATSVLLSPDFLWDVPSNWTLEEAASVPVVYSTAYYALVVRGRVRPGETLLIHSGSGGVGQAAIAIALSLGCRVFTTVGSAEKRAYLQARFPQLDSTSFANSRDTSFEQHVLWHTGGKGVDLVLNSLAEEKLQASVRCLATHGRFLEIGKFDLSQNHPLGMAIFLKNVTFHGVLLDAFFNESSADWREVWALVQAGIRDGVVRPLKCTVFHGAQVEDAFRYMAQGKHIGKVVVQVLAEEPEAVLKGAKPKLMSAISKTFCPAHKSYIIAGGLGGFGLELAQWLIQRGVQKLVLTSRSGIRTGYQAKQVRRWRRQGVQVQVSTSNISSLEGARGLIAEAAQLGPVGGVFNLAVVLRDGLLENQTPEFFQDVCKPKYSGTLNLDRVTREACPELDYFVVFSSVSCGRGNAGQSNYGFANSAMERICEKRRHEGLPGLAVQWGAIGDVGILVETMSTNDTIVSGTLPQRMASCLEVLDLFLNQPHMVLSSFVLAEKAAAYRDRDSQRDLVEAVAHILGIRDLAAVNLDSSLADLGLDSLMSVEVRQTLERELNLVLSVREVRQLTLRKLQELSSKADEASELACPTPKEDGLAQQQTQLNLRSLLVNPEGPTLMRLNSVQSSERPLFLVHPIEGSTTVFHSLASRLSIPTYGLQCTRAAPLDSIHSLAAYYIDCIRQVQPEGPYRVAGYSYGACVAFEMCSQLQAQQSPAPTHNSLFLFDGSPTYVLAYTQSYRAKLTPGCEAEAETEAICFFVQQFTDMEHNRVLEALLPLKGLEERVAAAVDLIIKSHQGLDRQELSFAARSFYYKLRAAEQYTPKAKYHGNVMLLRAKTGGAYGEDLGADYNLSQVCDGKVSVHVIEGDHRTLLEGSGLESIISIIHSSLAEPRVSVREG
Sequence of Fatty Acid Synthase Keto-reductase Domain (FASN KR) (P49327 whole entry, the tested form may be a part): as the sequence (P49327 whole entry) above

In the case of `O=C(C1CC1)N1CC[C@@H](CN2C(=O)C3(CCCC3)N=C2c2ccc(-c3ccc4[nH]c(=O)[nH]c4c3)cc2F)C1` [compound 885, (R)-5-(4-(3-((1-(cyclopropanecarbonyl)pyrrolidin-3-yl)methuyl)-4-oxo-1,3-diazaspiro[4.4]non-1-en-2-yl)-3-fluorophenyl)-1H-benzo[d]imidazol-2(3H)-one], the IC50 in assay [1] is approximately 2630 nM; in the assay on A2780 ovarian cells [2] it was more than 10000 nM; in assay [3] (read-out: Human FASN pIC50 (converted)) it was 309 nM; in assay [4] it was more than 10000 nM; in assay [5] it was 490 nM; in the assay with A2780 ovarian cells [6], approximately 2240 nM. In assay [3] (read-out: Human FASN % inhibition @ 10 μM, 10 μM test compound), the inhibition at 10 µM is 98%.
